Format in all cases: functional
Assay [1] has as its system Geobacillus stearothermophilus. Kind of assay: Antibacterial activity against Bacillus stearothermophilus MTCC 8508 at 50 ug/mL by agar well diffusion method. To be noted: read-out: DIZ.
Assay [2] concerns Geobacillus stearothermophilus. Kind of assay: Antibacterial activity against Bacillus stearothermophilus MTCC 8508 at 10 ug/mL by agar well diffusion method. To be noted: for zone of inhibition at 10 µg/mL: read-out: DIZ.
The test system of assay [3] is Pseudomonas putida. Put plainly: Antibacterial activity against Pseudomonas putida MTCC 121 at 100 ug/mL by agar well diffusion method. To be noted: read-out: DIZ.
The test system of assay [4] is Escherichia coli. Put plainly: Antibacterial activity against Escherichia coli MTCC 51 at 100 ug/mL by agar well diffusion method. The note with it: read-out: DIZ.
For assay [5], the system named is Geobacillus stearothermophilus. Kind of assay: Antibacterial activity against Bacillus stearothermophilus MTCC 8508 at 100 ug/mL by agar well diffusion method. The note with it: read-out: DIZ.
For assay [6], the system named is Pseudomonas putida. Kind of assay: Antibacterial activity against Pseudomonas putida MTCC 121 after 24 hrs. The note with it: MTCC 121, 24 h.
The test system of assay [7] is Pseudomonas putida. Kind of assay: Antibacterial activity against Pseudomonas putida MTCC 121 at 10 ug/mL by agar well diffusion method. To be noted: for zone of inhibition at 10 µg/mL: read-out: DIZ.
Assay [8] relates to Escherichia coli. Kind of assay: Antibacterial activity against Escherichia coli MTCC 51 at 10 ug/mL by agar well diffusion method. To be noted: for zone of inhibition at 10 µg/mL: read-out: DIZ.
In assay [9] the test system is Escherichia coli. Put plainly: Antibacterial activity against Escherichia coli MTCC 51 after 24 hrs. The note with it: MTCC 51, 24 h.
Assay [10] relates to Bacillus subtilis. Put plainly: Antibacterial activity against Bacillus subtilis MTCC 8509 at 50 ug/mL by agar well diffusion method. To be noted: read-out: DIZ.
In assay [11] the test system is Bacillus subtilis. Kind of assay: Antibacterial activity against Bacillus subtilis MTCC 8509 at 100 ug/mL by agar well diffusion method. To be noted: read-out: DIZ.
For assay [12], the system named is Pseudomonas putida. Put plainly: Antibacterial activity against Pseudomonas putida MTCC 121 at 50 ug/mL by agar well diffusion method. To be noted: read-out: DIZ.
Assay [13] relates to Bacillus subtilis. Put plainly: Antibacterial activity against Bacillus subtilis MTCC 8509 after 24 hrs. To be noted: MTCC 8509, 24 h.
The test system of assay [14] is Bacillus subtilis. Kind of assay: Antibacterial activity against Bacillus subtilis MTCC 8509 at 10 ug/mL by agar well diffusion method. To be noted: for zone of inhibition at 10 µg/mL: read-out: DIZ.
Assay [15] deals with Geobacillus stearothermophilus. Kind of assay: Antibacterial activity against Bacillus stearothermophilus MTCC 8508 after 24 hrs. To be noted: MTCC 8508, 24 h.
Assay [16] has as its system Escherichia coli. Kind of assay: Antibacterial activity against Escherichia coli MTCC 51 at 50 ug/mL by agar well diffusion method. To be noted: read-out: DIZ.

SMILES strings stand for the structures. ≈ marks a conversion by molar mass, not a printed value. Calls of active or inactive are those of the source. The rule behind the calls is not given here. Some results are limits rather than exact numbers.

With `Cc1ccc(-c2nnc3cc(C)nc(C)n23)cc1`, the zone of inhibition at 50 µg/mL in [1] was 19.7 mm; in the assay on Bacillus subtilis [10], 21.3 mm; with Pseudomonas putida [12] it was 40.3 mm; in the assay on Escherichia coli [16], 22.2 mm. The zone of inhibition at 10 µg/mL was 9.74 mm in [2], 26.7 mm with Pseudomonas putida [7], 11.7 mm in the assay on Escherichia coli [8] and 12.3 mm with Bacillus subtilis [14]. Also, the zone of inhibition at 100 µg/mL is 59.7 mm in the assay with Pseudomonas putida [3], 40.2 mm in the assay on Escherichia coli [4], 30.3 mm in [5] and 42.1 mm in the assay with Bacillus subtilis [11]. Also, the MIC against Pseudomonas putida [6] was 8 µg/mL (≈ 33.6 µM); with Escherichia coli [9] it was 16 µg/mL (≈ 67.1 µM); in the assay on Bacillus subtilis [13], 16 µg/mL (≈ 67.1 µM); in [15] it was 32 µg/mL (≈ 134 µM).

As to `Cc1cc2nnc(-c3ccc([N+](=O)[O-])cc3)n2c(C)n1`, the zone of inhibition at 50 µg/mL amounted to 10.3 mm in assay [1], 9.66 mm in the assay on Bacillus subtilis [10], 12.3 mm in the assay on Pseudomonas putida [12] and 8.33 mm in the assay with Escherichia coli [16]. In addition, the outcome (in assay [2]; in the assay with Pseudomonas putida [7]; in the assay with Escherichia coli [8]; in the assay on Bacillus subtilis [14]) was inactive. For the same compound, the zone of inhibition at 100 µg/mL in the assay with Pseudomonas putida [3] was 19.7 mm; in the assay on Escherichia coli [4], 13.7 mm; in assay [5] it was 16.7 mm; with Bacillus subtilis [11] it was 14.3 mm. Besides, the MIC against Pseudomonas putida [6] was 125 µg/mL (≈ 464 µM); with Escherichia coli [9], 250 µg/mL (≈ 928 µM); against Bacillus subtilis [13] it was 250 µg/mL (≈ 928 µM); in [15], above 250 µg/mL.

In the case of `O=C(N[C@H](CO)[C@H](O)c1ccc([N+](=O)[O-])cc1)C(Cl)Cl` [CHLORAMPHENICOL], the zone of inhibition at 50 µg/mL stood at 53.2 mm in assay [1], 57.2 mm with Bacillus subtilis [10], 53.4 mm with Pseudomonas putida [12] and 50.4 mm with Escherichia coli [16]. The zone of inhibition at 10 µg/mL was determined as 35.3 mm in assay [2], 29.3 mm in the assay on Pseudomonas putida [7], 30.3 mm in the assay on Escherichia coli [8] and 36.3 mm with Bacillus subtilis [14]. Moreover, the zone of inhibition at 100 µg/mL worked out at 71.2 mm in the assay on Pseudomonas putida [3], 75.4 mm with Escherichia coli [4], 77.2 mm in assay [5] and 74.2 mm with Bacillus subtilis [11]. Also, the MIC was found to be 2 µg/mL (≈ 6.19 µM) against Pseudomonas putida [6], 4 µg/mL (≈ 12.4 µM) in the assay on Escherichia coli [9], 2 µg/mL (≈ 6.19 µM) with Bacillus subtilis [13] and 2 µg/mL (≈ 6.19 µM) in assay [15].

These data come from ChEMBL document CHEMBL1158340, “Organoiodine (III)-mediated synthesis of 3-aryl/heteroaryl-5,7-dimethyl-1,2,4-triazolo[4,3-c]pyrimidines as antibacterial agents” (2009).
